Measurements as given in patent publication US20230091225A1, “Bifunctional chimeric heterocyclic compounds for targeted degradation of androgen receptors and use thereof” (HINOVA PHARMACEUTICALS INC., priority 2019, published 2023).

Biological target: T1, androgen receptor (AR) (Homo sapiens, UniProt P10275)
T1 sequence (P10275 1-920): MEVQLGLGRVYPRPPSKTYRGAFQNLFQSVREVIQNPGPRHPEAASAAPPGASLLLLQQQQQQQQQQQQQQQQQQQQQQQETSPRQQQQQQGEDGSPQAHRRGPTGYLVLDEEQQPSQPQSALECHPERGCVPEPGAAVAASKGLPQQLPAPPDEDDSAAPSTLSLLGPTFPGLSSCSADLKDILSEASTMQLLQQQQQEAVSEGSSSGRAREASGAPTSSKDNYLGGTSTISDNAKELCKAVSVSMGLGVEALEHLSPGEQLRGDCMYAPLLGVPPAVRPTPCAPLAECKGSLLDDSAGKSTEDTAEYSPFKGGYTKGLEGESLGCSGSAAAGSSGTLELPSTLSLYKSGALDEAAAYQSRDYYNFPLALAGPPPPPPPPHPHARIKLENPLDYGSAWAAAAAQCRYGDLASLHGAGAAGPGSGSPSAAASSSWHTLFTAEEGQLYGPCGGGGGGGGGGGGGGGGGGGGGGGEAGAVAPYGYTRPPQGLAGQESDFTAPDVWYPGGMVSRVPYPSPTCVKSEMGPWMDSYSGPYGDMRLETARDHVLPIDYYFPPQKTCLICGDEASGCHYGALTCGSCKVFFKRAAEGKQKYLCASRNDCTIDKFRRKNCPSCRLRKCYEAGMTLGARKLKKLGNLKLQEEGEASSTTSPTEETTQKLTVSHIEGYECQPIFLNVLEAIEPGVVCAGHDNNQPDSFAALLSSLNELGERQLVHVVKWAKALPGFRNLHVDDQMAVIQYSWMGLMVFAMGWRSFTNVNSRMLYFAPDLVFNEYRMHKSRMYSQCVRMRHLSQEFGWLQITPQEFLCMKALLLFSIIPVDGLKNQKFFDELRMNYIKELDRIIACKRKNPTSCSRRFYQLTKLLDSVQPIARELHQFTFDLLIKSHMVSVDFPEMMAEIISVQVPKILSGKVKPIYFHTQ
Assay: Degradation of androgen receptor (AR) protein in VCaP cells by Western blot
Type: cell-based
Settings: percentage of degraded AR at 100 nM, VCaP cells, 16 h
Summary of the method: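 AR and β-actin levels were read by Western blot with ECL detection, loading 30 μg lysate protein per well. Before lysis, VCaP cells seeded at 5×10^5/well and grown overnight were exposed to compound for 16 h, two wells per concentration, keeping DMSO at 0.1%.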

Row | Compound | inhibition at 0.1 µM
1 | CC1(C)[C@H](Oc2ccc(C#N)c(Cl)c2)C(C)(C)[C@H]1N1Cc2nc(C#CC3CCN(C4CN(c5cc6c(cc5F)C(=O)N(C5CCC(=O)NC5=O)C6=O)C4)CC3)ccc2C1=O (some centres unmarked) [Compound 318, 2-Chloro-4-((1r,3r)-3-(2-((1-(1-(2-(2,6-dioxopiperidin-3-yl)-6-fluoro-1,3-dioxoisoindolin-5-yl)azitidin-3-yl)piperidine-4-yl)ethynyl)-5-oxo-5H-pyrrolino [3,4-b]pyridin-6(7H)-yl)-2,2,4,4-tetramethylcyclobutoxy)benzonitrile] | 50 to 79%
2 | N#Cc1ccc(O[C@H]2CC[C@H](NC(=O)c3ccc(N4CCC(CN5CCC(Nc6ccc7c(c6)C(=O)N(C6CCC(=O)NC6=O)C7=O)CC5)CC4)nn3)CC2)cc1Cl (some centres unmarked) [Compound 143] | > 80%
3 | N#Cc1ccc(O[C@H]2CC[C@H](NC(=O)c3cnc(N4CCC(N5CC6CN(c7cc8c(cc7F)C(=O)N(C7CCC(=O)NC7=O)C8=O)CC6C5)CC4)cn3)CC2)cc1Cl (some centres unmarked) [Compound 64, N-((1r,4r)-4-(3-chloro-4-cyanophenoxy)cyclohexyl)-5-(4-(5-(2-(2,6-dioxopiperidin-3-yl)-6-fluoro-1,3-dioxoisoindolin-5-yl)hexahydropyrrolo[3,4-c]pyrrol-2(1H)-yl)piperidin-1-yl)pyrazine-2-carboxamide] | 50 to 79%
4 | CC1(C)[C@H](NC(=O)c2ccc(N3CCC(N4C[C@H]5CN(c6cc7c(cc6F)C(=O)N(C6CCC(=O)NC6=O)C7=O)C[C@H]5C4)CC3)nn2)C(C)(C)[C@H]1Oc1ccc(C#N)c(Cl)c1 (stereo partly drawn) [Compound 221, N-((1r,3R)-3-(3-chloro-4-cyanophenoxy)-2,2,4,4-tetramethylcyclobutyl)-6-(4-((3aR,6aS)-5-(2-(2,6-dioxopiperidin-3-yl)-6-fluoro-1,3-dioxoisoindolin-5-yl)hexahydropyrrolo[3,4-c]pyrrol-2(1H)-yl)piperidin-1-yl)pyridazine-3-carboxamide] | 25 to 49%
5 | N#Cc1ccc(O[C@H]2CC[C@H](NC(=O)c3cnc(N4CC5CN(CC6CN(c7cc8c(cc7F)C(=O)N(C7CCC(=O)NC7=O)C8=O)C6)CC5C4)cn3)CC2)cc1Cl (some centres unmarked) [Compound 159] | 50 to 79%
6 | CC1(C)[C@H](Oc2ccc(C#N)c(Cl)c2)C(C)(C)[C@H]1N1Cc2nc(C#CC3CN(C4CCN(c5cc6c(cc5F)C(=O)N(C5CCC(=O)NC5=O)C6=O)CC4)C3)ccc2C1=O (some centres unmarked) [Compound 320, 2-Chloro-4-((1r,3r)-3-(2-((1-(1-(2-(2,6-dioxopiperidin-3-yl)-6-fluoro-1,3-dioxoisoindolin-5-yl)piperidine-4-yl)azelaic acid-3-yl)ethynyl)-5-oxo-5H-pyrrolino[3,4-b]pyridin-6(7H)-yl)-2,2,4,4-tetramethylcyclobutoxy)benzonitrile] | 50 to 79%
7 | N#Cc1ccc(O[C@H]2CC[C@H](NC(=O)c3ccc(N4CCN(CC5C[C@@H]6CN(c7cc8c(cc7F)C(=O)N(C7CCC(=O)NC7=O)C8=O)C[C@@H]6C5)CC4)nn3)CC2)cc1Cl (some centres unmarked) [Compound 226] | 50 to 79%
8 | N#Cc1ccc(O[C@H]2CC[C@H](NC(=O)c3cnc(N4CCC(CN5CCC6(CCN(c7cc8c(cc7F)C(=O)N(C7CCC(=O)NC7=O)C8=O)C6)C5)CC4)cn3)CC2)cc1Cl (some centres unmarked) [Compound 141] | > 80%
9 | CC1(C)[C@H](NC(=O)c2cnc(N3C[C@@H]4[C@@H](CN5CCN(c6cc7c(cc6F)C(=O)N(C6CCC(=O)NC6=O)C7=O)CC5)[C@@H]4C3)cn2)C(C)(C)[C@H]1Oc1ccc(C#N)c(Cl)c1 (stereo partly drawn) [Compound 182, N-((1r,3R)-3-(3-chloro-4-cyanophenoxy)-2,2,4,4-tetramethylcyclobutyl)-5-((1R,5S,6S)-6-((4-(2-(2,6-dioxopiperidin-3-yl)-6-fluoro-1,3-dioxoisoindolin-5-yl)piperazin-1-yl)methyl)-3-azabicyclo[3.1.0]hexan-3-yl)pyrazine-2-carboxamide] | 50 to 79%
10 | N#Cc1ccc(O[C@H]2CC[C@H](NC(=O)c3cnc(N4CCC(N5CC6(CCN(c7cc8c(cc7F)C(=O)N(C7CCC(=O)NC7=O)C8=O)CC6)C5)CC4)cn3)CC2)cc1Cl (some centres unmarked) [Compound 228, N-((1r,4r)-4-(3-chloro-4-cyanophenoxy)cyclohexyl)-5-(4-(7-(2-(2,6-dioxopiperidin-3-yl)-6-fluoro-1,3-dioxoisoindolin-5-yl)-2,7-diazaspiro[3.5]nonan-2-yl)piperidin-1-yl)pyrazine-2-carboxamide] | > 80%
11 | CC1(C)[C@H](Oc2ccc(C#N)c(Cl)c2)C(C)(C)[C@H]1N1Cc2nc(C#CC3CC(NC4CCN(c5ccc6c(c5)C(=O)N(C5CCC(=O)NC5=O)C6=O)CC4)C3)ccc2C1=O (some centres unmarked) [Compound 327, 2-Chloro-4-((1r,3r)-3-(2-((3-(1-(2-(2,6-dioxopiperidin-3-yl)-1,3-dioxoisoindolin-5-yl)piperidine-4-ylamino)cyclobutyl)ethynyl)-5-oxo-5,7-dihydro-pyrrolo[3,4-b]pyridin-6-yl)-2,2,4,4-tetramethylcyclobutoxy)benzonitrile] | 50 to 79%
12 | N#Cc1ccc(O[C@H]2CC[C@H](NC(=O)c3cnc(N4CCN([C@@H]5C[C@@H]6CN(c7ccc8c(c7)C(=O)N(C7CCC(=O)NC7=O)C8=O)C[C@@H]6C5)CC4)nc3)CC2)cc1Cl (stereo partly drawn) [Compound 300, N-((1r,4r)-4-(3-chloro-4-cyanophenoxy)cyclohexyl)-2-(4-((3aR,5R,6aS)-2-(2-(2,6-dioxopiperidin-3-yl)-1,3-dioxoisoindolin-5-yl)octahydrocyclopenta[c]pyrrol-5-yl)piperazin-1-yl)pyrimidine-5-carboxamide] | < 25%
13 | N#Cc1ccc(O[C@H]2CC[C@H](NC(=O)c3ccc(N4CCC(CN5CCCN(c6ccc7c(c6)C(=O)N(C6CCC(=O)NC6=O)C7=O)CC5)CC4)cc3)CC2)cc1Cl (stereo partly drawn) [Compound 58, N-((1R,4R)-4-(3-chloro-4-cyanophenoxy)cyclohexyl)-4-(4-((4-(2-(2,6-dioxopiperidin-3-yl)-1,3-dioxoisoindolin-5-yl)-1,4-diazepan-1-yl)methyl)piperidin-1-yl)benzamide] | 25 to 49%
14 | N#Cc1ccc(O[C@H]2CC[C@H](N3Cc4nc(C#CC5CCN(C6CCN(c7ccc8c(c7)C(=O)N(C7CCC(=O)NC7=O)C8=O)CC6)CC5)ccc4C3=O)CC2)cc1Cl (some centres unmarked) [Compound 323] | < 25%
15 | N#Cc1ccc(O[C@H]2C[C@H]3C[C@@H](NC(=O)c4cnc(N5CCC(CN6CCN(c7ccc8c(c7)C(=O)N(C7CCC(=O)NC7=O)C8=O)CC6)CC5)cn4)C[C@H]3C2)cc1Cl (stereo partly drawn) [Compound 303, N-((2s,3aR,5R,6aS)-5-(3-chloro-4-cyanophenoxy)octahydropenten-2-yl)-5-(4-((4-(2-(2,6-dioxopiperidin-3-yl)-1,3-dioxoisoindolin-5-yl)piperazin-1-yl)methyl)piperidin-1-yl)piperazine-2-carboxamide] | < 25%
16 | N#Cc1ccc(O[C@H]2CC[C@H](NC(=O)c3cnc(N4CCN(C(=O)O[C@H]5C[C@@H]6CN(c7ccc8c(c7)C(=O)N(C7CCC(=O)NC7=O)C8=O)C[C@@H]6C5)CC4)cn3)CC2)cc1Cl (some centres unmarked) [Compound 301] | 50 to 79%
17 | N#Cc1ccc(O[C@H]2CC[C@H](NC(=O)c3ccc(N4CCC(CN5CCC6(C5)CN(c5ccc7c(c5)C(=O)N(C5CCC(=O)NC5=O)C7=O)C6)CC4)nn3)CC2)cc1Cl (some centres unmarked) [Compound 185, N-((1r,4r)-4-(3-chloro-4-cyanophenoxy)cyclohexyl)-6-(4-((2-(2-(2,6-dioxopiperidin-3-yl)-1,3-dioxoisoindolin-5-yl)-2,6-diazaspiro[3.4]octan-6-yl)methyl)piperidin-1-yl)pyridazine-3-formamide] | > 80%
18 | CC1(C)[C@H](NC(=O)c2ccc(N3CCC(NC4CCN(c5cc6c(cc5F)C(=O)N(C5CCC(=O)NC5=O)C6=O)CC4)CC3)nn2)C(C)(C)[C@H]1Oc1ccc(C#N)c(Cl)c1 (some centres unmarked) [Compound 291, N-((1r,3r)-3-(3-chloro-4-cyanophenoxy)-2,2,4,4-tetramethylcyclobutyl)-6-(4-((1-(2-(2,6-dioxopiperidin-3-yl)-6-fluoro-1,3-dioxoisoindoline)piperidine-4-yl)amino)piperidin-1-yl)pyridazine-3-formamide] | 50 to 79%
19 | N#Cc1ccc(O[C@H]2CC[C@H](NC(=O)c3ccc(N4CCC5(CC4)CN(C4CCN(c6cc7c(cc6F)C(=O)N(C6CCC(=O)NC6=O)C7=O)CC4)C5)nn3)CC2)cc1Cl (some centres unmarked) [Compound 71] | > 80%
20 | CC1(C)[C@H](Oc2ccc(C#N)c(Cl)c2)C(C)(C)[C@H]1N1Cc2nc(C#CC3CCN(C4CN(c5ccc6c(c5)C(=O)N(C5CCC(=O)NC5=O)C6=O)C4)CC3)ccc2C1=O (some centres unmarked) [Compound 317, 2-Chloro-4-((1r,3r)-3-(2-((1-(1-(2-(2,6-dioxopiperidin-3-yl)-6-fluoro-1,3-dioxoisoindolin-5-yl)azitidin-3-yl)piperidine-4-yl)ethynyl)-5-oxo-5H-pyrrolino [3,4-b]pyridin-6(7H)-yl)-2,2,4,4-tetramethylcyclobutoxy)benzonitrile] | 50 to 79%
